One data set has as its system auditory hair cells. Put plainly: Hair cell survival and damage by Myo7a immunostaining of cochlear slices. It is filed as in vivo, C57BL/6 mice. Particulars: normoxia; single condition.
The conditions of data set [1]: mouse.
A short description of data set [2]: Auditory brainstem response test (ABR-TEST), hearing threshold. It is filed as in vivo, C57BL/6 mice. To be noted: for hearing threshold: hypoxia.
Protocol: The wave V reference value of ABR was determined by gradually attenuating the sound intensity in 5 dB steps from 80 dB SPL until the wave V and the noise floor were indistinguishable from the recorded traces. Data management and auditory brainstem response test were conducted using the TDT RZ6/BioSigRZ system (Tucker Davis Technologies, Alachua, FL, USA) in a noise attenuation chamber with a built-in Faraday box.
Electrodes were disposed on the subcutaneous tissue of each mouse to collect data. […] An isothermal pad was used to maintain the body temperature of the mouse, and the ABR test was conducted every two weeks for stability of the experimental groups.
Another data set has as its system SOD. Put plainly: Superoxide dismutase (SOD) activity test in serum. It is filed as in vivo, C57BL/6 mice. Set-up: unit not given here. Here is the method: Specifically, the blood was reacted in an anticoagulant tube at 25° C. (room temperature) for 30 minutes, and then centrifuged at 2,000 × g for 15 minutes at 4° C. to prepare purified serum. The purified serum was stored at -80° C. for one month and diluted 1:5 with sample buffer before analysis, and then the amount of SOD in the body was measured using an SOD assay kit (No. 706002, Cayman Che., MI, USA). The SOD assay kit is a kit that uses tetrazolium salt to detect superoxide radicals generated by xanthine oxidase and hypoxanthine. […] The amount of oxidative stress in serum was analyzed by analyzing the SOD activity test result in Experimental Example <1-5>.

Protocol for auditory hair cells: Specifically, an opening was made at the apex of the cochlear bone of the sacrificed mouse, and phosphate buffered saline at pH 7.4 containing 4% paraformaldehyde as a fixative was perfused at room temperature. The cochlea perfused with a fixative was immersed in Calci-Clear Rapid for 24 hours to demineralize, an OCT (Optimal Cutting Temperature) compound was inserted, and then the cochlea was cut into slices with a thickness of 2 to 5 µm using LEICA RM2145 (Leica Biosystems, Wetzlar, German). The cut cochlea was incubated in standard hematoxylin for 3 minutes and stained with eosin (H&E) for 60 seconds.
Specifically, the cochlear slice was fixed on a gelatin-coated slide having a thickness of 5 µm with 4% paraformaldehyde for 15 minutes and then dried at room temperature. The slice was incubated with 5% normal goat serum at room temperature for 1 hour to prevent nonspecific labeling, and incubated with primary antibody MY07A (1:200, ab3481, Abeam, UK) at 4° C. for 1 hour. […]
The images of auditory hair cells of all the cochlear slices were analyzed using a confocal microscope (Carl Zeiss Microscopy GmbH, Jena, Germany) and ZEN lite ver.2.3 (ZEN lite, Jena, Germany) software.
The survival rate was evaluated by analyzing Myo7a, a major protein present in auditory hair cells.

As for `O=C[C@H](O)[C@@H](O)[C@@H](O)[C@H](O)CO` [GI, D-galactose], in the data set with auditory hair cells, the “damage to hair cells” value was “almost no damage to cells”. Further, the “Dermis Thickness” value in data set [1] came to 348.5 ±85.9. For the same compound, the hearing threshold in data set [2] (8, 16, 24 kHz analysis, initial value (increased from)) was 30 dB; in data set [2] (8, 16, 24 kHz analysis, value after 1 month (increased to)) it was 60 dB; in data set [2] (8 kHz, final value (increased to), 3 months) it was 67 + 10.13 dB; in data set [2] (8 kHz, initial value (increased from)), 34 + 3.76 dB; in data set [2] (16 kHz, final value (increased to), 3 months), 60 + 7.33 dB; in data set [2] (16 kHz, initial value (increased from)) it was 38 + 4.08 dB. Further, the “change in hearing threshold compared to control group” value in data set [2] (normoxia, 8, 16, and 24 kHz) is “do not change significantly”. Also, the “change in the hearing threshold” value in data set [2] (normoxia, 8 kHz) was “no significant change”. In addition, in data set [2] (normoxia, frequencies of 4 to 32 kHz, 3 months), the “changes in the hearing thresholds” value is given as “no significant changes”. In addition, the “amount of SOD in serum” value in the data set on SOD (hypoxia, 0 M) is listed as 0.5914 ±0.000; in the data set with SOD (hypoxia, 1 M) it was 0.5627 ± 0.005; in the data set on SOD (hypoxia, 2 M) it was 0.5463 ± 0.005; in the data set on SOD (hypoxia, 3 M) it was 0.5695 ± 0.059; in the data set with SOD (normoxia, 0 M) it was 0.5955 ± 0.017; in the data set with SOD (normoxia, 1 M), 0.5463 ± 0.005. In addition, the “amount of SOD in serum” value with SOD (normoxia, 2 M) is 0.5216 ± 0.005; in the data set with SOD (normoxia, 3 M), 0.5148 ± 0.028.

The values above are taken from patent US20230309520A1, “AGE-RELATED HEARING LOSS ANIMAL MODEL AND CONSTRUCTION METHOD THEREFOR” (UNIVERSITY INDUSTRY FOUNDATION, YONSEI UNIVERSITY WONJU …, priority 2020, published 2023).
